# In patent publication EP0256125A1, “MEANS FOR PREVENTING MICROBIOLOGICAL OVERGROWING OF HARD SURFACE” (priority 1985, dated 1987):
# How the values were obtained:
# [1] = prior art statement; cited from earlier work
# [2] = Solubility in solvents (qualitative)
# [3] = system: weißen Mäusen; experiment: Acute toxicity in white mice; details: result in words
# [4] = Acute toxicity in white mice; details: mouse, in vivo, ip
# [5] = Storage stability (qualitative); type: physicochemical; details: result in words
# [6] = system: Cladosporium cladosporioides; experiment: Fungicidal activity, inhibition of mycelium growth on wort agar; type: cell-based
# Text: (§1) Man prüfte die funguzide Aktivität von Zink-bis-(N-vi- nyloxyethyl)dithiocarbamat gegenüber den reinen Pilzkulturen: Gladosporium resinae, Cladosporium cladosporioides, Acremonium corvum, Acremonium charticola, Penicillium charlesii Smith, Walrotiela subiculesa, Geotrichum candidum Link, Oidium, Penicillium crysogenum. Die genannten Pilze wurden von den Oberflächen der Wände und Decken von Bierbrauereien und Werken für die Herstellung von alkoholfreien Getränken ausgeschieden.
# (§2) […] In eine der Petri-Schalen wurde Nährboden mit 1 ml Azeton (Kontrolle) gegossen.
# (§3) In 18 bis 20 Stunden nach dem Vergießen des Nährbodens in die Petri-Schalen führte man die Inokulation der reinen Pilzkultur durch, die vorher an einem Schräg-Würzeagar während 15 Tage gezüchtet wurden. Die Inkubation führte man bei einer Temperatur von 25 bis 27°C während 5 Tage durch. Danach wurde der Durchmesser der Pilzkolonien gemessen und der Prozentsatz der Hemmung des Wachstums des Myzeliums (S) nach der Abbott -Formel gezählt: [formula] worin dc Durchmesser der Pilzkolonien in Kontrolle ist, de =Durchmesser der Pilzkolonien in einer Schale mit dem Nährboden ist, der Zink-bis-(N-vinyloxyethyl)dithiocarbamat enthält.
# [7] = system: Acremonium corvum; experiment: as above; type: cell-based
# Text: as §1, §2, §3
# [8] = system: Oidium; experiment: as above; type: cell-based
# Text: as §1, §2, §3
# [9] = system: Walrotiela subiculesa; experiment: as above; type: cell-based
# Text: as §1, §2, §3
# [10] = system: Penicillium chrysogenum; experiment: as above; type: cell-based
# Text: as §1, §2, §3
# [11] = system: Geotrichum candidum Link; experiment: as above; type: cell-based
# Text: as §1, §2, §3
# [12] = system: Penicillium charlesii Smith; experiment: as above; type: cell-based
# Text: as §1, §2, §3
# [13] = system: Acremonium charticola; experiment: as above; type: cell-based
# Text: as §1, §2, §3
# [14] = system: Cladosporium resinae; experiment: as above; type: cell-based
# Text: as §1, §2, §3
# [15] = Konzentration des Stoffes 0,0015 %
# [16] = Konzentration des Stoffes 0,003 %
# [17] = Konzentration des Stoffes 0,006 %
# [18] = Konzentration des Stoffes 0,012 %
smiles,measurement,setting,value
CCCCCCCCn1sccc1=O [2-n-Oktyl-4-isothiazolinon-3],effektive Konzentration als Biozid für Lack- und Farbstoffe,[1],"0,4 Masse%"
C=COCCNC(=S)[S-].[Na+] [Natrium-N-(vinyloxyethyl)dithiocarbamat],Löslichkeit im Alkohol,[2]; Alkohol (Ethylalkohol),teilweise
same,Löslichkeit im Azeton,[2]; Azeton,teilweise
same,Löslichkeit im Diethylether,[2]; Diethylether,unlöslich
same,Löslichkeit in Wasser,[2]; Wasser,gut löslich
same,Toxizität für Warmblüter,[3],wenig toxisch
same,LD50,[4],260 mg/kg
same,Lagerbeständigkeit,[5],lagerbeständig
same,"Hemmung des Myzeliums am 5. Tag des Wachstums, Cladosporium cladosporioides",[6]; [15],100%
same,"Hemmung des Myzeliums am 5. Tag des Wachstums, Cladosporium cladosporioides",[6]; [16],100%
same,"Hemmung des Myzeliums am 5. Tag des Wachstums, Cladosporium cladosporioides",[6]; [17],100%
same,"Hemmung des Myzeliums am 5. Tag des Wachstums, Cladosporium cladosporioides",[6]; [18],100%
same,"Hemmung des Myzeliums am 5. Tag des Wachstums, Acremonium corvum",[7]; [15],100%
same,"Hemmung des Myzeliums am 5. Tag des Wachstums, Acremonium corvum",[7]; [16],100%
same,"Hemmung des Myzeliums am 5. Tag des Wachstums, Acremonium corvum",[7]; [17],100%
same,"Hemmung des Myzeliums am 5. Tag des Wachstums, Acremonium corvum",[7]; [18],100%
same,"Hemmung des Myzeliums am 5. Tag des Wachstums, Oidium",[8]; [15],60%
same,"Hemmung des Myzeliums am 5. Tag des Wachstums, Oidium",[8]; [16],100%
same,"Hemmung des Myzeliums am 5. Tag des Wachstums, Oidium",[8]; [17],100%
same,"Hemmung des Myzeliums am 5. Tag des Wachstums, Oidium",[8]; [18],100%
same,"Hemmung des Myzeliums am 5. Tag des Wachstums, Walrotiela subiculesa",[9]; [15],100%
same,"Hemmung des Myzeliums am 5. Tag des Wachstums, Walrotiela subiculesa",[9]; [16],100%
same,"Hemmung des Myzeliums am 5. Tag des Wachstums, Walrotiela subiculesa",[9]; [17],100%
same,"Hemmung des Myzeliums am 5. Tag des Wachstums, Walrotiela subiculesa",[9]; [18],100%
same,"Hemmung des Myzeliums am 5. Tag des Wachstums, Penicillium chrysogenum",[10]; [15],5%
same,"Hemmung des Myzeliums am 5. Tag des Wachstums, Penicillium chrysogenum",[10]; [16],20%
same,"Hemmung des Myzeliums am 5. Tag des Wachstums, Penicillium chrysogenum",[10]; [17],80%
same,"Hemmung des Myzeliums am 5. Tag des Wachstums, Penicillium chrysogenum",[10]; [18],100%
same,"Hemmung des Myzeliums am 5. Tag des Wachstums, Geotrichum candidum Link",[11]; [15],5%
same,"Hemmung des Myzeliums am 5. Tag des Wachstums, Geotrichum candidum Link",[11]; [16],40%
same,"Hemmung des Myzeliums am 5. Tag des Wachstums, Geotrichum candidum Link",[11]; [17],75%
same,"Hemmung des Myzeliums am 5. Tag des Wachstums, Geotrichum candidum Link",[11]; [18],100%
same,"Hemmung des Myzeliums am 5. Tag des Wachstums, Penicillium charlesii Smith",[12]; [15],25%
same,"Hemmung des Myzeliums am 5. Tag des Wachstums, Penicillium charlesii Smith",[12]; [16],40%
same,"Hemmung des Myzeliums am 5. Tag des Wachstums, Penicillium charlesii Smith",[12]; [17],90%
same,"Hemmung des Myzeliums am 5. Tag des Wachstums, Penicillium charlesii Smith",[12]; [18],100%
same,"Hemmung des Myzeliums am 5. Tag des Wachstums, Acremonium charticola",[13]; [15],100%
same,"Hemmung des Myzeliums am 5. Tag des Wachstums, Acremonium charticola",[13]; [16],100%
same,"Hemmung des Myzeliums am 5. Tag des Wachstums, Acremonium charticola",[13]; [17],100%
same,"Hemmung des Myzeliums am 5. Tag des Wachstums, Acremonium charticola",[13]; [18],100%
same,"Hemmung des Myzeliums am 5. Tag des Wachstums, Cladosporium resinae",[14]; [15],100%
same,"Hemmung des Myzeliums am 5. Tag des Wachstums, Cladosporium resinae",[14]; [16],100%
same,"Hemmung des Myzeliums am 5. Tag des Wachstums, Cladosporium resinae",[14]; [17],100%
same,"Hemmung des Myzeliums am 5. Tag des Wachstums, Cladosporium resinae",[14]; [18],100%
